{"source": "patent US20260284240A1", "about": "“RADIOLABELED COMPOUND FOR USE IN A METHOD OF TREATING CARBONIC ANHYDRASE IX POSITIVE DISEASES” (DEBIOPHARM INTERNATIONAL S.A., priority 2023, published 2026)", "key": {"[1]": {"target": "T1, human CAIX (Homo sapiens, UniProt Q16790)", "T1 construct": "purchased Sino Biological 10107-H02H", "assay": "Surface Plasmon Resonance (SPR) binding to captured human CAIX (Biacore T200)", "settings": "25° C.", "quoted_text": "Surface Plasmon Resonance (SPR) studies were performed on a Biacore™ T200 using a ligand capture approach. Basically, anti-human Fc antibodies were immobilized on the surface of a sensor chip and CAIX was captured on the functionalized surface via its Fc Tag. Then, each compound was injected at increasing concentrations on the captured CAIX in order to measure the in real-time interaction of the compound to its target (i.e., the captured CAIX). The in real-time monitoring of the association and dissociation of the interaction gives access to the interaction kinetics parameters (i.e., the association and dissociation rate constants and the resulting affinity constants). […]\n• For each measurement, the raw surface plasmon resonance response (RU) was plotted against time (s) as a sensorgram using the Biacore™ T200 Control Software. • Raw data were corrected by double referencing with subtraction of the signal of both the reference flow-cell and the blank cycle. • The association and dissociation rate constants (ka and kd, respectively), as well as the dissociation constant KD and dissociation half-life t½ were determined from the corrected sensorgrams by fitting the data to a 1:1 Langmuir binding model with the Biacore™ T200 evaluation software."}, "[2]": {"assay": "Biodistribution of In-111-labeled compounds by SPECT/CT in HT-29 tumor-bearing mice", "assay_type": "in vivo, mouse", "settings": "mouse", "experimental": "(§1) The effect on tumor uptake of prior injection of gelofusine for kidney protection was investigated in mice bearing the SK-RC-52 tumor. Biodistribution was evaluated using in vivo SPECT/CT imaging. Prior to the in vivo study the compounds (ligands) were initially radiolabeled with In-111 and the stability of radiolabeled compounds was evaluated in buffer at three different timepoints.\n(§2) The study was performed in female NMRI nude mice (approximately 6 weeks of age) from Janvier Labs, France, housed up to 5 mice per cage.\n(§3) The column was washed with 2 mL water, and then the final product was eluted from the column in EtOH solution (50%) • The sample was formulated in PBS to the final concentration of 150 MBq/mL and 5 nmol/mL.\n(§4) SK-RC-52 cells were cultured in RPMI 1640 with GlutaMax-I (Thermo Fisher Scientific #61870044) supplemented with 10% fetal bovine serum+1% penicillin/streptomycin, harvested, washed twice in RPMI 1640 and resuspended at 2×10^7 cells/mL in RPMI 1640. HT-29 cells were cultured in McCoy's 5a Medium Modified (Sigma #M9309). For inoculation of HT-29 cells, cells were harvested, washed twice in PBS and resuspended at 5×10^7 cells/mL in PBS. Cells were kept on ice until inoculation.\n(§5) Animals were anaesthetized (isoflurane, 2-4% in ambient air supplemented with 100% O2) prior to tumor inoculation. The tumor cells (100 μL suspension of either SK-RC-52 cells (2×10^6 cells/animal) or HT-29 cells (5×10^6 cells/animal)) were subcutaneously inoculated in the right flank using a 1-mL syringe equipped with a 27G needle. Tumor growth and animal weight were measured twice per week. Tumor size was measured by caliper and the volume was estimated using the following formula: 0.52×(length×width^2). When tumor sizes reached 150-250 mm^3, animals were randomized into groups (n=3) of similar average tumor volume and body weight.\n(§6) Animals were injected intravenously with In-111-labeled compounds (single bolus, 22.3-31.2 MBq, ~1 nmol ligand, injection volume: 100 μL) in the lateral tail vein using a 29G syringe.\n(§7) CT was performed with helical scan, 300 ms exposure, reconstruction resolution of 250 μm. SPECT was performed with multi-pinhole scan and a 30 s frame time. For the quantification of the radioactivity uptake, regions of interests (ROIs) were drawn over the tumor, kidney, liver, and heart (estimate of blood) identified on the images. Uptake was expressed as percent of injected dose per gram tissue (% ID/g)."}, "[3]": {"tested_on": "HT-29 tumor", "assay": "Biodistribution of In-111-labeled compounds by SPECT/CT in HT-29 tumor-bearing mice", "assay_type": "in vivo, mouse", "experimental": "as §1, §2, §3, §4, §5, §6, §7"}, "[4]": {"assay": "Toxicokinetics in the dose range finding study in dogs (LC-HRMS plasma)", "assay_type": "in vivo, dog", "settings": "for CL / Vss / t1/2 / Dose-normalized AUClast / AUClast / concentration at […]: dog plasma, i.v. bolus; for CL / Vss / t1/2 / AUClast / concentration at […]: mean n = 2; for Dose-normalized AUClast: AUClast divided by dose in μg/kg; for concentration at […]: iv, read-out: C15 min", "experimental": "The following parameters and endpoints were evaluated: mortality, clinical observations, body weights, food consumption, local reactions, clinical pathology parameters (hematology, coagulation, and clinical chemistry), organ weights, and macroscopic examinations. Both animals were sampled for toxicokinetics (TK) on each dosing occasion (i.e., on day 1, day 5, day 9 and day 13) at: pre-dose, 15 min, 30 min, 1 h, 6 h and 24 h. Blood samples were collected in K2EDTA tubes. Plasma was prepared by centrifugation (2500 g for 10 minutes, +4° C.) within 1 hour after collection, and then frozen within 1 hour after centrifugation and stored at −80° C. […] Chromatographic separation was achieved using a Waters Acquity UPLC system with a Waters Acquity HSS T3 C18 2.1×50 mm, 1.8 μm column. Chromatography was conducted at 50° C. at a flow rate of 0.7 mL/min using a mobile phase consisting of A: acetonitrile, and B: 1% formic acid in water, according to the following linear gradient: 0 to 0.1 min: 90% B; 0.1 to 4.1 min: from 90% B to 74% B; 4.1 to 4.2 min: from 74% B to 5% B; 4.2 to 4.6 min: 5% B; 4.6 to 4.7 min: from 5% B to 90% B; 4.7-5.1 min; 90% B. Detection was performed using a Sciex AP16600 TOF mass spectrometer. Toxicokinetic parameters were estimated from concentration-time data using Phoenix pharmacokinetic software (version 6.4, Certara L.P.). A non-compartmental approach consistent with the bolus intravenous injection was used for parameter estimation. […] Neither in-life parameters nor clinical pathology parameters were affected. In addition, there were no related macroscopic observations noted at necropsy."}, "[5]": {"assay": "Allometric prediction of human PK parameters from mouse and dog PK", "settings": "allometry from mouse and dog", "experimental": "From the variety of CL, Vd and T1/2 determined in the animal studies, the highest and lowest values for each species were retained, and allometry was conducted on all the combinations to obtain a range for each predicted human PK parameter."}}, "note": "Where two headings read alike, the source gives them in different places. Starred links: 1 amine or outer side, 2 acyl side, 3 side chain; linkers in the order of their positions; H or OH if unused. Positions of bridges follow the written chain, without caps; N, C: chain ends. Non-standard residues stand in square brackets, D forms with d. Residues, ends and D or L forms follow the SMILES beside them. *: point of attachment. Phe(3-NHCO(CH2)3SO2NH2) = N[C@@H](Cc1cccc(NC(=O)CCCS(N)(=O)=O)c1)C(=O)O; DOTA = O=C(O)CN1CCN(CC(=O)O)CCN(CC(=O)*)CCN(CC(=O)O)CC1; mXylylene = c1cc(C[*:1])cc(C[*:2])c1; X1 = O=C(CN1CCN([*:1])CC1)[*:2]"}
{"smiles": "CC(C)C[C@@H]1NC(=O)[C@H](Cc2cccc(NC(=O)CCCS(N)(=O)=O)c2)NC(=O)[C@H](CC(=O)O)NC(=O)[C@H]2CCCN2C(=O)[C@H](CCC(=O)O)NC(=O)[C@@H](NC(=O)[C@H](CCC(N)=O)NC(=O)CN2CCN(C(=O)CN3CCN(CC(=O)O)CCN(CC(=O)O)CCN(CC(=O)O)CC3)CC2)CSCc2cccc(c2)CSC[C@@H](C(N)=O)NC(=O)[C@H](CO)NC(=O)[C@H](Cc2c[nH]c3ccccc23)NC(=O)[C@H]([C@@H](C)O)NC1=O", "note": "[DPI-4452, DOTA-PPAc-Gln-[Cys(3MeBn)-Glu-pro-Asp-Af3(Cpsu)-Leu-Thr-Trp-Ser-Cys]-NH2] ({DOTA}-[X1]QCE[dP]D[Phe(3-NHCO(CH2)3SO2NH2)]LTWSC-NH2; linker 3-12 via mXylylene)", "values": [{"measurement": "t1/2 (dissociation half-life)", "setting": "[1]", "result": 99, "unit": "min"}, {"measurement": "tissue uptake", "setting": "[2]; ht-29 tumor, HT-29, Mean ± SEM, N=3, read-out: Peak Tumor Uptake", "result": "5.21 ± 1.22", "unit": "%ID/g"}, {"measurement": "tissue uptake", "setting": "[2]; kidney, HT-29 mice, read-out: Peak Kidney uptake", "result": "5.37 ± 1.45", "unit": "%ID/g"}, {"measurement": "% remaining tumor uptake at 24 h p.i.", "setting": "[3]; HT-29", "result": "65.8 ± 3.8", "unit": "%"}, {"measurement": "Time to peak uptake in tumor", "setting": "[3]; HT-29", "result": 2, "unit": "h"}, {"measurement": "Blood uptake at 4 h p.i.", "setting": "[3]; HT-29 mice", "result": "0.04 ± 0.002", "unit": "% ID/g"}, {"measurement": "Kidney uptake at 24 h p.i.", "setting": "[3]; HT-29 mice", "result": "1.41 ± 0.11", "unit": "% ID/g"}, {"measurement": "Liver uptake at 4 h p.i.", "setting": "[3]; HT-29 mice", "result": "0.12 ± 0.005", "unit": "% ID/g"}, {"measurement": "CL", "setting": "[4]; Day 1, […], 1440 min", "result": 11.7, "unit": "mL/min/kg"}, {"measurement": "Vss", "setting": "[4]; Day 1, […], 1440 min", "result": 0.22, "unit": "L/kg"}, {"measurement": "t1/2", "setting": "[4]; Day 1, […], 1440 min", "result": 15, "unit": "min"}, {"measurement": "Dose-normalized AUClast", "setting": "[4]; Day 1, […]", "result": 1.36}, {"measurement": "AUClast", "setting": "[4]; Day 5, 0.08 mg/kg, 7200 min", "result": 117, "unit": "ng·h/mL"}, {"measurement": "Dose-normalized AUClast", "setting": "[4]; Day 5, 0.08 mg/kg", "result": 1.46}, {"measurement": "AUClast", "setting": "[4]; Day 9, 0.4 mg/kg, 12960 min", "result": 926, "unit": "ng·h/mL"}, {"measurement": "CL", "setting": "[4]; Day 9, 0.4 mg/kg, 12960 min", "result": 6.83, "unit": "mL/min/kg"}, {"measurement": "Vss", "setting": "[4]; Day 9, 0.4 mg/kg, 12960 min", "result": 0.24, "unit": "L/kg"}, {"measurement": "t1/2", "setting": "[4]; Day 9, 0.4 mg/kg, 12960 min", "result": 29.4, "unit": "min"}, {"measurement": "Dose-normalized AUClast", "setting": "[4]; Day 9, 0.4 mg/kg", "result": 2.31}, {"measurement": "AUClast", "setting": "[4]; Day 13, 0.8 mg/kg, 18720 min", "result": 3530, "unit": "ng·h/mL"}, {"measurement": "CL", "setting": "[4]; Day 13, 0.8 mg/kg, 18720 min", "result": 3.52, "unit": "mL/min/kg"}, {"measurement": "Vss", "setting": "[4]; Day 13, 0.8 mg/kg, 18720 min", "result": 0.32, "unit": "L/kg"}, {"measurement": "t1/2", "setting": "[4]; Day 13, 0.8 mg/kg, 18720 min", "result": 52.8, "unit": "min"}, {"measurement": "Dose-normalized AUClast", "setting": "[4]; Day 13, 0.8 mg/kg", "result": 4.42}, {"measurement": "Dose proportionality of exposure", "setting": "[4]; dog, 25-800 μg/kg i.v.", "result": "exposure increased more than dose-proportionally"}, {"measurement": "concentration at […]", "setting": "[4]; Day 1, 0.025 mg/kg", "result": 46.8, "unit": "ng/mL"}, {"measurement": "concentration at […]", "setting": "[4]; Day 5, 0.08 mg/kg", "result": 156, "unit": "ng/mL"}, {"measurement": "concentration at […]", "setting": "[4]; Day 9, 0.4 mg/kg", "result": 880, "unit": "ng/mL"}, {"measurement": "concentration at […]", "setting": "[4]; Day 13, 0.8 mg/kg", "result": 2000, "unit": "ng/mL"}, {"measurement": "Predicted human clearance (CL)", "setting": "[5]", "result": "3.57 to 13.0", "unit": "mL/min/kg"}, {"measurement": "Predicted human terminal half-life (T1/2)", "setting": "[5]", "result": "10.2 to 88.2", "unit": "min"}, {"measurement": "Predicted human volume of distribution (Vd)", "setting": "[5]", "result": "0.189 to 0.455", "unit": "L/kg"}]}
